The values below come from article PMC9573813 (Molecular Diversity, 2022).

A short description of series [1]: Cytotoxicity, cell growth. Particulars: human, human embryonic lung (HEL) fibroblasts. The class given is cell-based.
Series [2] is described as follows: Cytotoxicity evaluation on RAW 264.7 macrophages. Format: cell-based. Conditions: mouse.
Series [3] relates to L. donovani intramacrophage amastigotes. The class given is cell-based, Leishmania donovani. Particulars: CC50 RAW 264.7 / IC50 intramacrophage amastigotes.

A value given as a limit tells only on which side of the number the result lay.

With `Nc1nc2c(ncn2COCCO)c(=O)[nH]1` [Acyclovir (ACV), Acyclovir], in series [1], the cytotoxic concentration (CC50) is more than 444 µM.

The compound `Nc1ccn(C[C@@H](CO)OCP(=O)(O)O)c(=O)n1` [Cidofovir (CDV), Cidofovir] returned a CC50 in series [1] of more than 317 µM.

In series [2], `O=Cc1cc(Cn2ccc(=O)[nH]c2=O)ccc1O` [Compound 7, 5-((2,4-Dioxo-3,4-dihydropyrimidin-1(2H)-yl)methyl)-2-hydroxybenzaldehyde] yielded a CC50 of more than 100 µM.

In series [2], `Cc1cn(Cc2ccc(O)c(C=O)c2)c(=O)[nH]c1=O` [Compound 8, 2-Hydroxy-5-((5-methyl-2,4-dioxo-3,4-dihydropyrimidin-1(2H)-yl)methyl) benzaldehyde] had a cytotoxic concentration (CC50) of more than 100 µM.

`O=Cc1cc(Cn2cc(F)c(=O)[nH]c2=O)ccc1O` [Compound 9, 5-((5-Fluoro-2,4-dioxo-3,4-dihydropyrimidin-1(2H)-yl)methyl)-2-hydroxybenzaldehyde] had a 50% cytotoxic concentration (CC50) in series [2] of more than 100 µM.

In series [2], `Cc1nn(Cc2ccc(O)c(C=O)c2)c(=O)[nH]c1=O` [Compound 10, 2-Hydroxy-5-((6-methyl-3,5-dioxo-4,5-dihydro-1,2,4-triazin-2(3H)-yl)methyl) benzaldehyde] registered a cytotoxic concentration (CC50) of 56.1 ± 16.8 µM. Also, in series [3], the “SI (CC50/IC50)” value was 1.87.

Consider `Nc1nc(O)c2ncn(COC(CO)CO)c2n1` [Ganciclovir (GCV), Ganciclovir], for which, in series [1], the CC50 is more than 394 µM.

With `CCCCCCCCCCCCCCCCOP(=O)([O-])OCC[N+](C)(C)C` [Miltefosine, reference compound], the CC50 in series [2] is 52.2 ± 11.1 µM.

For orientation: CC50 means the concentration giving 50% cytotoxicity.
